Test results as given in US20060229348A1, “Oxindole oxazolidinone as antibacterial agent” (priority 2005, published 2006).
≈ marks a conversion by molar mass, not a printed value.

How the values were obtained:
E. faecalis (VREF) = assay: in vitro antibacterial activity (MIC), E. faecalis (VREF); format: cell-based; details: Enterococcus faecalis
Source text: (§1) The in vitro antibacterial activity of the compound of the present invention may be assessed by following procedures recommended in (1) National Committee for Clinical Laboratory Standards (January 2003), Methods for dilution antimicrobial tests for bacteria that grow aerobically, Approved Standard (6th ed), M7-A6, NCCLS, Wayne, Pa.; (2) National Committee for Clinical Laboratory Standards (March 2001), Methods for antimicrobial susceptibility testing of anaerobic bacteria, Approved Standard (5th ed), M11-A4, NCCLS, Wayne, Pa.; (3) National Committee for Clinical Laboratory Standards (Jan. 2003), MIC testing supplemental tables, M100-S13 (for use with M7-A6), NCCLS, Wayne, Pa.; and (4) Murray P R, Baron E J, Jorgensen J H, et al. Manual of Clinical Microbiology (8th ed) Washington, D.C.: American Society for Microbiology Press, 2003. The antibacterial activity can be presented in the form of MIC value. The MIC value is the lowest concentration of drug, which prevented macroscopically visible growth under the conditions of the test.

S. pneumoniae (LRSA) = assay: in vitro antibacterial activity (MIC), S. pneumoniae (LRSA); format: cell-based; details: Streptococcus pneumoniae
Source text: as §1

S. aureus (LORSA) = assay: in vitro antibacterial activity (MIC), S. aureus (LORSA); format: cell-based; details: Staphylococcus aureus
Source text: as §1

MAO-B = target: T1, MAO-B (Homo sapiens, UniProt P27338); assay: monoamine oxidase inhibition, MAO-B; format: biochemical; details: substrate at Km 43 μM; MAO-B 0.008 mg/mL
T1 sequence (P27338 1-520): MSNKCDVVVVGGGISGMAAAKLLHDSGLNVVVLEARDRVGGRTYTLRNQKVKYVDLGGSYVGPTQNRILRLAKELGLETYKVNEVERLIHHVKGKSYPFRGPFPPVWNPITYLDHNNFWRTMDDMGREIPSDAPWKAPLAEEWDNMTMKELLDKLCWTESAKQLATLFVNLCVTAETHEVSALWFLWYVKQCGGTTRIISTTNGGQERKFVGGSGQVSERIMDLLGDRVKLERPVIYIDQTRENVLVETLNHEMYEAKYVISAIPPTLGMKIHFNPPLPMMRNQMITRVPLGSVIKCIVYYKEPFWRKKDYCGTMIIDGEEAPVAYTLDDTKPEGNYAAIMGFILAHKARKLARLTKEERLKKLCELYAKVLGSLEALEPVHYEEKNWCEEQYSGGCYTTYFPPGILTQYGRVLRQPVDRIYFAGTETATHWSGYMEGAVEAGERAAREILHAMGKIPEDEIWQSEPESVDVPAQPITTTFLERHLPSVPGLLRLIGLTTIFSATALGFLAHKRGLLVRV
Description: (§2) MAO-A and B inhibition were analyzed by measuring the inhibition of conversion of an MAO substrate, 1-methyl-4-(1-methyl-2-pyrryl)-1,2,3,6-tetrahydropyridine, to its dihydropyridinium metabolite (λ=421 nm). The substrate concentration was equal to the Km (64 μM for MAO-A and 43 μM for MAO-B). The MAO-A concentration was 0.01 mg/mL, and the MAO-B concentration was 0.008 mg/mL. Each inhibitor was tested at seven concentrations. Percent inhibition at each concentration was established relative to the uninhibited control rate, and the IC50 and Ki values were calculated.

E. faecium (VREF) = assay: in vitro antibacterial activity (MIC), E. faecium (VREF); format: cell-based; details: Enterococcus faecium
Source text: as §1

MAO-A = target: T2, MAO-A (Homo sapiens, UniProt P21397); assay: monoamine oxidase inhibition, MAO-A; format: biochemical; details: substrate at Km 64 μM; MAO-A 0.01 mg/mL
T2 sequence (P21397 1-527): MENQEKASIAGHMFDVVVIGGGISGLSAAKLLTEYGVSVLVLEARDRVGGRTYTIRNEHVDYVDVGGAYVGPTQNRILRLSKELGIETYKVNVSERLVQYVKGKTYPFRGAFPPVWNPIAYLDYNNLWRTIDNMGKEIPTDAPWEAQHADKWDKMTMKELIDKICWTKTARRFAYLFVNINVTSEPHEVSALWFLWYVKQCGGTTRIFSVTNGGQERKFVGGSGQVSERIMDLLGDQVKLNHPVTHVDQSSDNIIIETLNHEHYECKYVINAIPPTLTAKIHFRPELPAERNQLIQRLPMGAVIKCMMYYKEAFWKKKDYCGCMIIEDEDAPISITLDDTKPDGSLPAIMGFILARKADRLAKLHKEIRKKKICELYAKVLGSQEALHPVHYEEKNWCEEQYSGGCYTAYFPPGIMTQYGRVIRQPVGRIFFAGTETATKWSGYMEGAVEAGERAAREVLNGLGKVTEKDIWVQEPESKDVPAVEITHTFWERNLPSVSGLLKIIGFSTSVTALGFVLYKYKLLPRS
Description: as §2

S. pneumoniae SV1 SP-3 = assay: in vitro antibacterial activity, S. pneumoniae SV1 SP-3; format: cell-based; details: Streptococcus pneumoniae, SV1SP3; strain SV1 SP-3
Source text: as §1

S. aureus UC-76 SA-1 = assay: in vitro antibacterial activity, S. aureus UC-76 SA-1; format: cell-based; details: Staphylococcus aureus, UC76; strain UC-76 SA-1
Source text: as §1

E. faecalis MGH-2 EF 1-1 = assay: in vitro antibacterial activity, E. faecalis MGH-2 EF 1-1; format: cell-based; details: Enterococcus faecalis, MGH2EF11; strain MGH-2 EF 1-1
Source text: as §1

Row | Compound | MIC90 (E. faecalis (VREF)) [µg/mL] | MIC90 (S. pneumoniae (LRSA)) [µg/mL] | MIC90 (S. aureus (LORSA)) [µg/mL] | Ki (MAO-B) [µM] | MIC90 (E. faecium (VREF)) [µg/mL] | Ki (MAO-A) [µM] | MIC90 (S. pneumoniae SV1 SP-3) [µg/mL] | MIC90 (S. aureus UC-76 SA-1) [µg/mL] | MIC90 (E. faecalis MGH-2 EF 1-1) [µg/mL]
1 | CCN1C(=O)Cc2cc(N3C[C@H](CNC(=O)OC)OC3=O)ccc21 [Compound No. 1, (5S)-[3-(1-ethyl-2-oxo-2,3-dihydro-1H-indol-5-yl)-2-oxo-oxazolidin-5-ylmethyl]-carbamic acid methyl ester] | 4 (≈ 12 µM) | 2 (≈ 6 µM) | 4 (≈ 12 µM) | 57.4 | 4 (≈ 12 µM) | 880 | – | – | –
2 | COC(=O)NC[C@H]1CN(c2ccc3c(c2)CC(=O)N3C)C(=O)O1 [Example 2, (S)-[3-(1-methyl-2-oxo-2,3-dihydro-1H-indol-5-yl)-2-oxo-oxazolidin-5-ylmethyl]-carbamic acid methyl ester] | – | – | – | – | – | – | 1 (≈ 3.13 µM) | 4 (≈ 12.5 µM) | 2 (≈ 6.26 µM)
3 | COC(=O)NC[C@H]1CN(c2ccc3c(c2)CC(=O)N3CCF)C(=O)O1 [Example 3, (S)-{3-[1-(2-fluoro-ethyl)-2-oxo-2,3-dihydro-1H-indol-5-yl]-2-oxo-oxazolidin-5-ylmethyl}-carbamic acid methyl ester] | – | – | – | – | – | – | 2 (≈ 5.69 µM) | 4 (≈ 11.4 µM) | 2 (≈ 5.69 µM)
4 | COC(=O)NC[C@H]1CN(c2ccc3c(c2)CC(=O)N3C(C)C)C(=O)O1 [Example 4, (S)-[3-(1-isopropyl-2-oxo-2,3-dihydro-1H-indol-5-yl)-2-oxo-oxazolidin-5-ylmethyl]-carbamic acid methyl ester] | – | – | – | – | – | – | 4 (≈ 11.5 µM) | 8 (≈ 23 µM) | 8 (≈ 23 µM)
5 | CCCN1C(=O)Cc2cc(N3C[C@H](CNC(=O)OC)OC3=O)ccc21 [Example 5, (S)-[2-oxo-3-(2-oxo-1-propyl-2,3-dihydro-1H-indol-5-yl)-oxazolidin-5-ylmethyl]-carbamic acid methyl ester] | – | – | – | – | – | – | 4 (≈ 11.5 µM) | 8 (≈ 23 µM) | 4 (≈ 11.5 µM)
6 | COC(=O)NC[C@H]1CN(c2ccc3c(c2)CC(=O)N3C2CC2)C(=O)O1 [Example 6, (S)-[3-(1-cyclopropyl-2-oxo-2,3-dihydro-1H-indol-5-yl)-2-oxo-oxazolidin-5-ylmethyl]-carbamic acid methyl ester] | – | – | – | – | – | – | 4 (≈ 11.6 µM) | 4 (≈ 11.6 µM) | 4 (≈ 11.6 µM)
7 | COC(=O)NC[C@H]1CN(c2ccc3c(c2)CC(=O)N3CC2CC2)C(=O)O1 [Example 7, (S)-[3-(1-cyclopropylmethyl-2-oxo-2,3-dihydro-1H-indol-5-yl)-2-oxo-oxazolidin-5-ylmethyl]-carbamic acid methyl ester] | – | – | – | – | – | – | 4 (≈ 11.1 µM) | 8 (≈ 22.3 µM) | 8 (≈ 22.3 µM)
8 | COC(=O)NC[C@H]1CN(c2ccc3c(c2)CC(=O)N3C(C)CF)C(=O)O1 (stereo partly drawn) [Example 8, (S)-{3-[1-(2-fluoro-1-methyl-ethyl)-2-oxo-2,3-dihydro-1H-indol-5-yl]-2-oxo-oxazolidin-5-ylmethyl}-carbamic acid methyl ester] | – | – | – | – | – | – | 4 (≈ 10.9 µM) | 4 (≈ 10.9 µM) | 4 (≈ 10.9 µM)
